Results published in patent publication US20070117770A1, “Human ribosomal DNA (rDNA) and ribosomal RNA (rRNA) nucleic acids and uses thereof” (Cylene Pharmaceuticals, Inc., priority 2005, published 2007).

Key:
Test in all cases: Protein kinase inhibition assay
Format in all cases: biochemical
[1] = biological target: IKKβ(h) (Homo sapiens, UniProt O14920); conditions: read-out: percent residual activity of IKKβ(h)
Protocol: (§1) Certain compounds were tested for activity in protein kinase inhibition assays. All substrates were dissolved and diluted to working stocks in de-ionized water, apart from histone H1 (10× working stock in 20 mM MOPS pH 7.0), PDKtide (10× working stock in 50 mM Tris pH 7.0) ATF2 (which is typically stored at a 20× working stock in 50 mM Tris pH 7.5, 150 mM NaCl, 0.1 mM EGTA, 0.03% Brij-35, 50% glycerol, 1 mM benzamidine, 0.2 mM PMSF and 0.1% R-mercaptoethanol), KKLNRTLSFAEPG (SEQ ID NO:203) and RRRLSFAEPG (SEQ ID NO:204) (50 mM HEPES pH 7.4) and GGEEEEYFELVKKKK (SEQ ID NO:205) (20 mM MOPS pH 7.0). All kinases were pre-diluted to a 10× working concentration prior to addition into the assay. The composition of the dilution buffer for each kinase is detailed below.
(§2) In a final reaction volume of 25 μl, IKKβ (h) (5-10 mU) is incubated with 8 mM MOPS pH 7.0, 0.2 mM EDTA, 100 μM peptide, 10 mM MgAcetate and [gamma-33P-ATP] (specific activity approx. 500 cpm/pmol, concentration as required). The reaction is initiated by the addition of the MgATP mix. After incubation for 40 minutes at room temperature, the reaction is stopped by the addition of 5 μl of a 3% phosphoric acid solution. 10 μl of the reaction is then spotted onto a P30 filtermat and washed three times for 5 minutes in 75 mM phosphoric acid and once in methanol prior to drying and scintillation counting.

[2] = biological target: Yes(h) (Homo sapiens, UniProt P07947); conditions: read-out: percent residual activity of Yes(h)
Chain of Yes(h) (P07947 whole entry): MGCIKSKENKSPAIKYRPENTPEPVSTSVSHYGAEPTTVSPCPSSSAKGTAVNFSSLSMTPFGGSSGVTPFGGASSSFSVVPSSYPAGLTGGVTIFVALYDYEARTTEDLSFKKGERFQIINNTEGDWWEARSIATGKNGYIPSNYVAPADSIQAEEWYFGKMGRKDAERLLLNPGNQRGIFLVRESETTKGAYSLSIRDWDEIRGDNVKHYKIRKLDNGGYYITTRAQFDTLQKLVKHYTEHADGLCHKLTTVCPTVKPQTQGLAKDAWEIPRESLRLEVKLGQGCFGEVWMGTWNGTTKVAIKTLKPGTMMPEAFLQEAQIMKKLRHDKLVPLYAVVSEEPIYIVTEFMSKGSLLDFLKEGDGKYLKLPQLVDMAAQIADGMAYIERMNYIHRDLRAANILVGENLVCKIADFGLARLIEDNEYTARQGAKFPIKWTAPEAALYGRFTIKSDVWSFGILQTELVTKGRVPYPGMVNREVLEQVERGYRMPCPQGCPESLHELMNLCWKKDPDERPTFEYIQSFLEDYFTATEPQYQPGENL
Protocol: as §1
as §2, with “Yes” for “IKKβ”, “0.1 mg/ml poly(Glu, Tyr) 4:1,” for “100 μM peptide,”, “Filtermat A” for “P30 filtermat”

[3] = biological target: CDK2/cyclinA(h) (Homo sapiens, UniProt P24941); conditions: read-out: percent residual activity of CDK2/cyclinA(h)
Protocol: as §1
as §2, with “CDK2/cyclinA” for “IKKβ”, “0.1 mg/ml histone H1,” for “100 μM peptide,”

[4] = biological target: RIPK2(h) (Homo sapiens, UniProt O43353); conditions: read-out: percent residual activity of RIPK2(h)
Chain of RIPK2(h) (O43353 whole entry): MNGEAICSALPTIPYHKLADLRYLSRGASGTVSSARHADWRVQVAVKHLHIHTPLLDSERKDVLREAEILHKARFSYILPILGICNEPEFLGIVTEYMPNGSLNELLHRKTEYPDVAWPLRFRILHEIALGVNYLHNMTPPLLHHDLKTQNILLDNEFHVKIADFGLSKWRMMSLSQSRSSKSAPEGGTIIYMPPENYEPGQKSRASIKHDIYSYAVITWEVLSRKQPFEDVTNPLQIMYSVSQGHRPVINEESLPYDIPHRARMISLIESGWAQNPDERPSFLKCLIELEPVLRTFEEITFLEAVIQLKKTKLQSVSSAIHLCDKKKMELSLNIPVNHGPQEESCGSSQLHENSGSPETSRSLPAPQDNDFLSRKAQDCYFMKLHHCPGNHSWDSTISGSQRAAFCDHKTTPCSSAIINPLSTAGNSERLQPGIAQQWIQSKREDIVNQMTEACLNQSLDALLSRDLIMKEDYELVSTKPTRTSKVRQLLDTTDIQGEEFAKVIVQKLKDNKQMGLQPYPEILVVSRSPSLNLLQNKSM
Protocol: as §1
as §2, with “RIPK2” for “IKKβ”, “0.33 mg/ml myelin basic protein,” for “100 μM peptide,”

[5] = biological target: TBK1(h) (Homo sapiens, UniProt Q9UHD2); conditions: read-out: percent residual activity of TBK1(h)
Chain of TBK1(h) (Q9UHD2 whole entry): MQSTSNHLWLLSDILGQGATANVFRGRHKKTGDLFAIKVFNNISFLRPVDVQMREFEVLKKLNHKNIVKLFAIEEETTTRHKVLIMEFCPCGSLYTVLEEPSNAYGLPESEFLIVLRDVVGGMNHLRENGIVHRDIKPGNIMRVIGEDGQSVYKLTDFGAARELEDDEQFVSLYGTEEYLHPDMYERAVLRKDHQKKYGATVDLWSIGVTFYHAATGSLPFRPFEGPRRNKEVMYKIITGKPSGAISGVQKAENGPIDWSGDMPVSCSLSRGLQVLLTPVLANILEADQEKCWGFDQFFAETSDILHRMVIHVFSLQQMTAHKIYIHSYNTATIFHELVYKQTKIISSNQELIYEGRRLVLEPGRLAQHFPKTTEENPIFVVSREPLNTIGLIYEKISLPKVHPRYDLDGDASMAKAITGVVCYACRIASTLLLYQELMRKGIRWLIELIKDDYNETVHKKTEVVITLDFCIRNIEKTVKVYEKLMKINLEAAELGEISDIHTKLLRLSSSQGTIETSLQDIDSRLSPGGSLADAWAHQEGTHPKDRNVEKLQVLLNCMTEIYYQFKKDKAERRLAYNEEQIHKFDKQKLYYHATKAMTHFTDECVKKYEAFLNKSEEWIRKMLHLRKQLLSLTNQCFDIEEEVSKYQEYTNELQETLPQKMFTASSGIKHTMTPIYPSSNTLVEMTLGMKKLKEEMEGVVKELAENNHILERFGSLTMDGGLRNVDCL
Protocol: as §1
as §2, with “TBK1” for “IKKβ”, “200” for “100”, “KRRRALS(p)VASLPGL (SEQ ID NO:214),” for “peptide,”

[6] = biological target: EGFR(L861Q)(h) (Homo sapiens, UniProt P00533, L861Q); conditions: read-out: percent residual activity of EGFR(L861Q)(h)
Chain of EGFR(L861Q)(h) (P00533 25-1210 L861Q): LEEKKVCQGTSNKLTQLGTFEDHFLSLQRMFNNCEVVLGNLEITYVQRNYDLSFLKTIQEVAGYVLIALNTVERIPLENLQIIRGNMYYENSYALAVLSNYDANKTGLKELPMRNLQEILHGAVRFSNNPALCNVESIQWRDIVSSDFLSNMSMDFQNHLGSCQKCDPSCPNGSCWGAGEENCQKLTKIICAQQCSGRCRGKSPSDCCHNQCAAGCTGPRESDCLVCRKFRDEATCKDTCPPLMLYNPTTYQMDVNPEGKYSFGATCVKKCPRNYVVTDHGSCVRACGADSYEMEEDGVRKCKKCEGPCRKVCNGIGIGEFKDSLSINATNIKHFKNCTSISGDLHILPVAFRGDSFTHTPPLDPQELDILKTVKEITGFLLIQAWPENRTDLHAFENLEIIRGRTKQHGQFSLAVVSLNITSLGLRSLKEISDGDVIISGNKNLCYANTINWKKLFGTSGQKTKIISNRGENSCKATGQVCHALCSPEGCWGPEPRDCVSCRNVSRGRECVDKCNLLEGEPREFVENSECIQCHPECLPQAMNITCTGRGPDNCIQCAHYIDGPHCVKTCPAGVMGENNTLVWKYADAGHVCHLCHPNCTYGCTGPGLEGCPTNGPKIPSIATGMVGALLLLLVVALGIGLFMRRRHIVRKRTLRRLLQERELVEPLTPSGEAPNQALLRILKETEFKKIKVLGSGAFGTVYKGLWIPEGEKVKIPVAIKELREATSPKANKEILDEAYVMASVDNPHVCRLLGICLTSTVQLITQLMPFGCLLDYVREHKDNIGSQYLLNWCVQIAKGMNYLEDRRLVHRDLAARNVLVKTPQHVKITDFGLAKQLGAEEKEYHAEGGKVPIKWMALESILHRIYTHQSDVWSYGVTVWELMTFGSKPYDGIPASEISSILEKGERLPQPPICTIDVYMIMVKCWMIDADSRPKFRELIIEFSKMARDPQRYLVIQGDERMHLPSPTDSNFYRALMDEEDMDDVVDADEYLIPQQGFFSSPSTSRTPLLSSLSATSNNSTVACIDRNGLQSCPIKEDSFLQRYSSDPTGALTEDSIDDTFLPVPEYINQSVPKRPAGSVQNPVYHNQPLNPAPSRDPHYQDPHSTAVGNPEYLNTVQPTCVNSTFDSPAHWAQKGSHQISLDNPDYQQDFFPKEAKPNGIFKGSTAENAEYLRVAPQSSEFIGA
Protocol: as §1
as §2, with “EGFR (L861 Q)” for “IKKβ”, “0.1 mg/ml poly(Glu, Tyr) 4:1,” for “100 μM peptide,”, “Filtermat A” for “P30 filtermat”

Chain of IKKβ(h) (O14920 whole entry): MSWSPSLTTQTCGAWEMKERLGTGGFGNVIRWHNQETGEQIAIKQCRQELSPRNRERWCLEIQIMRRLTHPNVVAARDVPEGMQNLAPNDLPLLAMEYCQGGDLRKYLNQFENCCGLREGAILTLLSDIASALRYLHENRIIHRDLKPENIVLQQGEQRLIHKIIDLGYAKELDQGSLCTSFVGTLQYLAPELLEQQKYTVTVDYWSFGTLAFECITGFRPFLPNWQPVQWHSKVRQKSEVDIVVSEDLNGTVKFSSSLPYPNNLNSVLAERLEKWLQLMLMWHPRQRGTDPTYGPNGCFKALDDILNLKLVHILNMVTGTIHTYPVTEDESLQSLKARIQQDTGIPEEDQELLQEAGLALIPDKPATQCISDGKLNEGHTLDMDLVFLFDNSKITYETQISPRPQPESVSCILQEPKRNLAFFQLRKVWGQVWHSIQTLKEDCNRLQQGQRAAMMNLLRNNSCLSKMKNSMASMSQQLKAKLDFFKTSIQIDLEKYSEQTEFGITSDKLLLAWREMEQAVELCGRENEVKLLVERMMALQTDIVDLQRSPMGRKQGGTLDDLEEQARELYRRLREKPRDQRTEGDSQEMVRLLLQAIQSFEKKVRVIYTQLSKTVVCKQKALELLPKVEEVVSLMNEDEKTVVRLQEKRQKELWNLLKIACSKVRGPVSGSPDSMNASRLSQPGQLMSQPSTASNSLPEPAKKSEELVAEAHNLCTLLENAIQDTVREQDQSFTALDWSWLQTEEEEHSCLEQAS

CN1CCCC1CCNC(=O)c1cn2c3c(c(N4CCC(c5cnccn5)C4)c(F)cc3c1=O)Oc1cc3ccccc3cc1-2 (stereo not drawn) [Compound A-1]
remaining activity at 2.5 µM [1]: 56% | remaining activity at 2.5 µM [2]: 81% | remaining activity at 2.5 µM [3]: 86% | remaining activity at 2.5 µM [4]: 95% | remaining activity at 2.5 µM [5]: 71% | remaining activity at 2.5 µM [6]: 94%

CC(=O)N1CCN(c2ccc3c(=O)c(C(=O)NCCN4CCCC4)c4n(C)c5ccccc5n4c3n2)CC1 [Compound B-1]
remaining activity at 2.5 µM [1]: 105% | remaining activity at 2.5 µM [2]: 96% | remaining activity at 2.5 µM [3]: 94% | remaining activity at 2.5 µM [4]: 99% | remaining activity at 2.5 µM [5]: 114% | remaining activity at 2.5 µM [6]: 109%
